Test results as given in patent publication US8178548B2, “Anti-infective agents and uses thereof” (priority 2007, dated 2012).
pEC50, pIC50: −log10 of the molar value. Read-outs that look alike come from different tables or passages of the source.

Assays:
[1] = tested on: genotype 1b-Con1 subgenomic replicon cell line; assay: HCV Polymerase Replicon Assay, genotype 1b-Con1 (luciferase reporter); format: cell-based; details: Hepatitis C virus, 72 h, read-out: EC50 1b
[2] = tested on: genotype 1a-H77 subgenomic replicon cell line; assay: HCV Polymerase Replicon Assay, genotype 1a-H77 (luciferase reporter); format: cell-based; details: Hepatitis C virus, 72 h, read-out: EC50 1a
[3] = molecular target: T1, HCV polymerase 1A (Δ21 NS5B, H77) (Hepatitis C virus genotype 1a, UniProt P27958); assay: biochemical
T1 construct: 20 to 50 nM Δ21 NS5B
Procedure, shortened: (§1)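 Δ21 NS5B (20–50 nM) was preincubated with inhibitor, 60–125 μM GTP and 2 mM MnCl2 (pH 7.4) for 15 min at RT. RNA synthesis on 5 nM template with 20 μM CTP/ATP and 1 μM ³H-UTP ran 2–4 h at RT. Spermine-precipitated RNA was filter-counted, and IC50 was fit with a tight-binding equation.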

[4] = molecular target: T2, HCV polymerase 1B (Δ21 NS5B, HCV Strain 1B BK) (Hepatitis C virus genotype 1b, UniProt P26663); assay: biochemical
T2 construct: 20 to 50 nM Δ21 NS5B
Procedure, shortened: as §1

[5] = replicon 1b-Con1, luciferase, three days
[6] = replicon 1a-H77, luciferase, three days

T2 sequence (P26663 2420-2989, stated change not applied): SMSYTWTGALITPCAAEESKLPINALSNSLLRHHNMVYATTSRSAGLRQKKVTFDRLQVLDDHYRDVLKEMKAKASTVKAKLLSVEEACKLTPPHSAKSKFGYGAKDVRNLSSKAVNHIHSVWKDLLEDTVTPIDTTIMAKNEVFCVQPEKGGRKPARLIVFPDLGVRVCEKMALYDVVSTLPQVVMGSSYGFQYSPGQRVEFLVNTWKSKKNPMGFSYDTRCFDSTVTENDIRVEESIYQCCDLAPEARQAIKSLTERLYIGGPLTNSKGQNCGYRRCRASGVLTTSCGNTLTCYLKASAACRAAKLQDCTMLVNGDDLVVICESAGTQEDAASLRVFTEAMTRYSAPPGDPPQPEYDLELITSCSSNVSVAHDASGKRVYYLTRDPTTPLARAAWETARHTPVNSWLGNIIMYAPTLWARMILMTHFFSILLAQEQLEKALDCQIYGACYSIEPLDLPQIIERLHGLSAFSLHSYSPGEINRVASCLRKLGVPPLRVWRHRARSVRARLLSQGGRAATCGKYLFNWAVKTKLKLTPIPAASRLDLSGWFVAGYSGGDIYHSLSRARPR
T1 sequence (P27958 2421-2990, stated change not applied): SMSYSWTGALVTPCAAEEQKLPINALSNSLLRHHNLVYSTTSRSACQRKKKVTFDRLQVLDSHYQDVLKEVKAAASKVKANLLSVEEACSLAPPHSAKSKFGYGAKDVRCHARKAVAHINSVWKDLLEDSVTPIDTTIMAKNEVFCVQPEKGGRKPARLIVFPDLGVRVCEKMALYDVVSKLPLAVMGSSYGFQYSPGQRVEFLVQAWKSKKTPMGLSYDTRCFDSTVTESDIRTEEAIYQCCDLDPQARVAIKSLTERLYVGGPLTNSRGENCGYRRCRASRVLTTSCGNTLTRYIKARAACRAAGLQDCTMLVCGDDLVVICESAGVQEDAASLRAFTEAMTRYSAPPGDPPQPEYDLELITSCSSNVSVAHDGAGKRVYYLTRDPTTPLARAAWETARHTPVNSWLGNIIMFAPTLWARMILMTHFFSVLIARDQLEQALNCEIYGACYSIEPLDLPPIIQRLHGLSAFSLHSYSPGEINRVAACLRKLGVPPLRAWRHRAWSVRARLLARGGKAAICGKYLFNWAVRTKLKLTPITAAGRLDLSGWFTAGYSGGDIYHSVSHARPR

Structure (SMILES) | pEC50 [1] | pEC50 [2] | pIC50 [3] | pIC50 [4] | pEC50 [1, 5] | pEC50 [2, 6]
COc1c(/C=C/c2ccc(NS(C)(=O)=O)cc2-c2ncco2)cc(-n2ccc(=O)[nH]c2=O)cc1C(C)(C)C [IB-L1-1.26, (E)-N-(4-(3-tert-butyl-5-(2,4-dioxo-3,4-dihydropyrimidin-1(2H)-yl)-2-methoxystyryl)-3-(oxazol-2-yl)phenyl)methanesulfonamide] | > 8.00 | 7.00 to 8.00 | 7.00 to 8.00 | 7.00 to 8.00 | – | –
COc1c(/C=C/c2ccc(NS(C)(=O)=O)cc2C(=O)N2CCCC2)cc(-n2ccc(=O)[nH]c2=O)cc1C(C)(C)C [IB-L1-1.27, N-[4-{(E)-2-[3-tert-butyl-5-(2,4-dioxo-3,4-dihydro-2H-pyrimidin-1-yl)-2-methoxy-phenyl]-vinyl}-3-(pyrrolidine-1-carbonyl)-phenyl]-methanesulfonamide] | > 8.00 | 7.00 to 8.00 | 7.00 to 8.00 | 7.00 to 8.00 | – | –
COc1c(/C=C/c2ccc(NS(C)(=O)=O)cc2N)cc(-n2ccc(=O)[nH]c2=O)cc1C(C)(C)C [IB-L1-1.28, (E)-N-(3-amino-4-(3-tert-butyl-5-(2,4-dioxo-3,4-dihydropyrimidin-1(2H)-yl)-2-methoxystyryl)phenyl)methanesulfonamide] | > 8.00 | > 8.00 | 7.00 to 8.00 | 7.00 to 8.00 | – | –
COc1c(/C=C/c2ccc(NS(C)(=O)=O)cc2CN2CC(O)C2)cc(-n2ccc(=O)[nH]c2=O)cc1C(C)(C)C [IB-L1-1.29, N-[4-{(E)-2-[3-tert-butyl-5-(2,4-dioxo-3,4-dihydro-2H-pyrimidin-1-yl)-2-methoxy-phenyl]-vinyl}-3-(3-hydroxy-azetidin-1-ylmethyl)-phenyl]-methanesulfonamide] | 6.00 to 7.00 | 6.00 to 7.00 | 7.00 to 8.00 | 7.00 to 8.00 | – | –
CCOc1c(/C=C/c2ccc(NS(C)(=O)=O)cc2)cc(-n2ccc(=O)[nH]c2=O)cc1C(C)(C)C [IB-L1-1.30, (E)-N-(4-(3-tert-butyl-5-(2,4-dioxo-3,4-dihydropyrimidin-1(2H)-yl)-2-ethoxystyryl)phenyl)methanesulfonamide] | – | – | 7.00 to 8.00 | 7.00 to 8.00 | 7.00 to 8.00 | 6.00 to 7.00
COc1c(/C=C/c2ccc(NS(C)(=O)=O)cc2CNCCC(C)C)cc(-n2ccc(=O)[nH]c2=O)cc1C(C)(C)C [IB-L1-1.31, (E)-N-(4-(3-tert-butyl-5-(2,4-dioxo-3,4-dihydropyrimidin-1(2H)-yl)-2-methoxystyryl)-3-((isopentylamino)methyl)phenyl)methanesulfonamide] | < 6.00 | < 6.00 | 7.00 to 8.00 | 6.00 to 7.00 | – | –
COc1c(/C=C/c2ccc(NS(C)(=O)=O)cc2NC(=O)OC(C)(C)C)cc(-n2ccc(=O)[nH]c2=O)cc1C(C)(C)C [IB-L1-1.32, (E)-tert-butyl 2-(3-tert-butyl-5-(2,4-dioxo-3,4-dihydropyrimidin-1(2H)-yl)-2-methoxystyryl)-5-(methylsulfonamido)phenylcarbamate] | 7.00 to 8.00 | 6.00 to 7.00 | 6.00 to 7.00 | 6.00 to 7.00 | – | –
COc1c(/C=C/c2ccc(NS(C)(=O)=O)cc2CN2CCCC2)cc(-n2ccc(=O)[nH]c2=O)cc1C(C)(C)C [IB-L1-1.33, N-(4-{(E)-2-[3-tert-Butyl-5-(2,4-dioxo-3,4-dihydro-2H-pyrimidin-1-yl)-2-methoxy-phenyl]-vinyl}-3-pyrrolidin-1-ylmethyl-phenyl)-methanesulfonamide] | 7.00 to 8.00 | 6.00 to 7.00 | 6.00 to 7.00 | 6.00 to 7.00 | – | –
COc1c(/C=C\c2ccc(NS(C)(=O)=O)cc2)cc(-n2ccc(=O)[nH]c2=O)cc1C(C)(C)C [IB-L1-1.34, N-(4-{(Z)-2-[3-tert-Butyl-5-(2,4-dioxo-3,4-dihydro-2H-pyrimidin-1-yl)-2-methoxy-phenyl]-vinyl}-phenyl)-methanesulfonamide] | > 8.00 | 7.00 to 8.00 | < 6.00 | < 6.00 | – | –
COc1c(/C=C/c2ccc(NS(C)(=O)=O)cc2)cc(-n2ccc(=O)[nH]c2=O)cc1C(C)(C)CO [IB-L1-1.45, (E)-N-(4-(5-(2,4-dioxo-3,4-dihydropyrimidin-1(2H)-yl)-3-(1-hydroxy-2-methylpropan-2-yl)-2-methoxystyryl)phenyl)methanesulfonamide] | – | – | > 8.00 | 7.00 to 8.00 | > 8.00 | 7.00 to 8.00
COc1c(/C=C/c2ccc(NS(C)(=O)=O)cc2)cc(-n2ccc(=O)[nH]c2=O)cc1-c1ccco1 [IB-L1-1.46, (E)-N-(4-(5-(2,4-dioxo-3,4-dihydropyrimidin-1(2H)-yl)-3-(furan-2-yl)-2-methoxystyryl)phenyl)methanesulfonamide] | – | – | 7.00 to 8.00 | 7.00 to 8.00 | > 8.00 | 6.00 to 7.00
COc1c(/C=C/c2ccc(NS(C)(=O)=O)cc2)cc(-n2ccc(=O)[nH]c2=O)cc1-c1ccsc1 [IB-L1-1.47, (E)-N-(4-(5-(2,4-dioxo-3,4-dihydropyrimidin-1(2H)-yl)-2-methoxy-3-(thiophen-3-yl)styryl)phenyl)methanesulfonamide] | – | – | 7.00 to 8.00 | 7.00 to 8.00 | 7.00 to 8.00 | 6.00 to 7.00
COc1c(/C=C/c2ccc(NS(C)(=O)=O)cc2)cc(-n2ccc(=O)[nH]c2=O)cc1-c1cccs1 [IB-L1-1.48, (E)-N-(4-(5-(2,4-dioxo-3,4-dihydropyrimidin-1(2H)-yl)-2-methoxy-3-(thiophen-2-yl)styryl)phenyl)methanesulfonamide] | – | – | 7.00 to 8.00 | 7.00 to 8.00 | > 8.00 | 6.00 to 7.00
COc1c(/C=C/c2ccc(NS(C)(=O)=O)cc2)cc(-n2ccc(=O)[nH]c2=O)cc1S(C)(=O)=O [IB-L1-1.49, (E)-N-(4-(5-(2,4-dioxo-3,4-dihydropyrimidin-1(2H)-yl)-2-methoxy-3-(methylsulfonyl)styryl)phenyl)methanesulfonamide] | – | – | 7.00 to 8.00 | 6.00 to 7.00 | < 6.00 | < 6.00
COc1c(/C=C/c2ccc(NS(C)(=O)=O)cc2)cc(-n2ccc(=O)[nH]c2=O)cc1-c1ccoc1 [IB-L1-1.50, (E)-N-(4-(5-(2,4-dioxo-3,4-dihydropyrimidin-1(2H)-yl)-3-(furan-3-yl)-2-methoxystyryl)phenyl)methanesulfonamide] | – | – | 7.00 to 8.00 | 7.00 to 8.00 | 7.00 to 8.00 | 6.00 to 7.00
COc1c(I)cc(-n2ccc(=O)[nH]c2=O)cc1/C=C/c1ccc(NS(C)(=O)=O)cc1 [IB-L1-1.51, (E)-N-(4-(5-(2,4-dioxo-3,4-dihydropyrimidin-1(2H)-yl)-3-iodo-2-methoxystyryl)phenyl)methanesulfonamide] | – | – | 7.00 to 8.00 | 7.00 to 8.00 | 7.00 to 8.00 | < 6.00
COc1c(Br)cc(-n2ccc(=O)[nH]c2=O)cc1/C=C/c1ccc(NS(C)(=O)=O)cc1 [IB-L1-1.52, (E)-N-(4-(3-bromo-5-(2,4-dioxo-3,4-dihydropyrimidin-1(2H)-yl)-2-methoxystyryl)phenyl)methanesulfonamide] | – | – | 6.00 to 7.00 | 6.00 to 7.00 | 6.00 to 7.00 | < 6.00
COC(=O)c1cc(NS(C)(=O)=O)ccc1CCc1cc(-n2ccc(=O)[nH]c2=O)cc(C(C)(C)C)c1OC [IB-L5-2-1.1, methyl 2-(3-tert-butyl-5-(2,4-dioxo-3,4-dihydropyrimidin-1(2H)-yl)-2-methoxyphenethyl)-5-(methylsulfonamido)benzoate] | – | – | > 8.00 | 7.00 to 8.00 | > 8.00 | 7.00 to 8.00
COc1c(CCc2ccc(NS(C)(=O)=O)cc2)cc(-n2ccc(=O)[nH]c2=O)cc1C(C)(C)C [IB-L5-2-1.2, N-(4-(3-tert-butyl-5-(2,4-dioxo-3,4-dihydropyrimidin-1(2H)-yl)-2-methoxyphenethyl)phenyl)methanesulfonamide] | – | – | 7.00 to 8.00 | 7.00 to 8.00 | 7.00 to 8.00 | 6.00 to 7.00
